Experiment in all cases: Protein transfection efficiency by flow cytometry
What all share (assay type): cell-based, human
Common to all, as to conditions: HEPES buffer 20 mM-40 mM

In one assay the test system is cervical cancer cells. On the procedure:
(§1) Flow cytometry: After protein transfection was completed, the cells in the culture dish were washed with PBS, trypsinized and pelleted. The cells were mixed with Fixation/Permeabilization (eBioscience, Inc., San Diego, Calif., USA) working solution and incubated at 4° C. for 30 min to 24 h. Cells were washed twice with 1× Permeabilization Buffer (eBioscience, Inc., San Diego, Calif., USA). To assess the protein transfection efficiency, the cells were stained with anti-v5 or anti-flag antibodies and Alexa Fluor 488 anti-mouse antibodies on ice. Cells were suspended in 1×PBS and analyzed by flow cytometry (BD Biosciences, Qume Drive San Jose, Calif., USA). FIG. 1 schematically illustrates the protein transfection procedure. Briefly, the protein of interest and a protein transfection composition, such as HEPES buffer, were mixed and incubated for about 15 min to about 30 min to form a mixture (Panel A). Cells to be transfected were replaced in a minimal essential medium (Panel B). The mixture in Panel A was added to the cells in Panel B and incubated at 37° C. for about 4 to about 24 hours (Panel C). The protein transfection efficiency can be analyzed using immunofluorescent staining or flow cytometry (Panel D). Alexa Fluor 488 anti-mouse IgG or […]1 were incubated with Opti-MEM (the control group) or HEPES buffer (20 mM-40 mM) to transfect the following cancer cells according to the steps in Example 1: human cervical cancer cells, human breast cancer cells (MCF7, BRCA009 or BRCA011), human endometrial cancer cells, lung adenocarcinoma cells, human pancreatic cancer cells, hepatocellular carcinoma cells, scarcoma cells, renal cell carcinoma cells, lymphoma cells, nasopharyngeal carcinoma cells, brain tumor cells, colon cancer cells, and leukemic cells. The protein transfection efficiency was assessed by flow cytometry or confocal microscope.

The subject of assay [1] is lung adenocarcinoma cells. On the procedure: as §1
For assay [2], the system named is hepatocellular carcinoma cells. On the procedure: as §1
For a further assay, the system named is breast cancer cells. On the procedure: as §1
Another assay deals with pancreatic cancer cells. On the procedure: as §1
For the next assay, the system named is endometrial cancer cells. On the procedure:
as §1

With “rhSTIP1: v5-tagged recombinant human STIP1 protein (BiP-STIP1-V5-His), 62.6 kDa”, the “transfection efficiency of rhSTIP1 using HEPES buffer” value in the assay on cervical cancer cells is “about 98.8%”; in assay [1], ~99.5%; in assay [2] it was ~96.6%; in the assay on breast cancer cells, “about 98.8%”; in the assay on pancreatic cancer cells, ~99.9%; in the assay with endometrial cancer cells, ~97%.
